The values that follow come from US9884849B2, “Fluorinated benzofuranyl-pyrimidine derivatives containing a sulfoximine group” (Bayer Pharma Aktiengesellschaft, priority 2014, dated 2018).

One experiment relates to A2780 cells. The experiment is described as follows: Proliferation assay A2780 (Method 3). It is filed as cell-based, human. The following applies: Homo sapiens, A2780, 96 h, A2780, 4 days, crystal violet; read-out: Inhibition of A2780 cell proliferation IC50. As for the experimental part: (§1) Cultivated tumour cells (HeLa, human cervical tumour cells, ATCC CCL-2; NCI-H460, human non-small cell lung carcinoma cells, ATCC HTB-177; A2780, human ovarian carcinoma cells, ECACC #93112519; DU 145, hormone-independent human prostate carcinoma cells, ATCC HTB-81; HeLa-MaTu-ADR, multidrug-resistant human cervical carcinoma cells, EPO-GmbH Berlin; Caco-2, human colorectal carcinoma cells, ATCC HTB-37; B16F10, mouse melanoma cells, ATCC CRL-6475) were plated at a density of 5,000 cells/well (DU145, HeLa-MaTu-ADR), 3,000 cells/well (NCI-H460, HeLa), 2,500 cells/well (A2780), 1,500 cells/well (Caco-2), or 1,000 cells/well (B16F10) in a 96-well multititer plate in 200 μL of their respective growth medium supplemented 10% fetal calf serum. After 24 hours, the cells of one plate (zero-point plate) were stained with crystal violet (see below), while the medium of the other plates was replaced by fresh culture medium (200 μl), to which the test substances were added in various concentrations (0 μM, as well as in the range of 0.001-10 μM; the final concentration of the solvent dimethyl sulfoxide was 0.5%). The cells were incubated for 4 days in the presence of test substances. Cell proliferation was determined by staining the cells with crystal violet: the cells were fixed by adding 20 μl/measuring point of an 11% glutaric aldehyde solution for 15 minutes at room temperature. After three washing cycles of the fixed cells with water, the plates were dried at room temperature. The cells were stained by adding 100 μl/measuring point of a 0.1% crystal violet solution (pH 3.0). After three washing cycles of the stained cells with water, the plates were dried at room temperature. The dye was dissolved by adding 100 μl/measuring point of a 10% acetic acid solution. The extinction was determined by photometry at a wavelength of 595 nm. The change of cell number, in percent, was calculated by normalization of the measured values to the extinction values of the zero-point plate (=0%) and the extinction of the untreated (0 μm) cells (=100%). The IC50 values (inhibitory concentration at 50% of maximal effect) were determined by means of a 4 parameter fit.

A further experiment has as its system HeLa-MaTu-ADR cells. The experiment is described as follows: Proliferation assay HeLa-MaTu-ADR (Method 3). The class given is cell-based, human. The following applies: Homo sapiens, 96 h, 4 days, crystal violet, read-out: Inhibition of HeLa-MaTu-ADR cell proliferation IC50. The procedure:
as §1

The target in a further experiment is T1, CDK9/CycT1 (Homo sapiens, UniProt P50750).
T1 construct: Recombinant full-length His-tagged human CDK9 and CycT1; His; purchased Invitrogen PV4131; host or cells: insect cells
The experiment is described as follows: CDK9/CycT1 high ATP kinase assay (Method 1b, TR-FRET). The class given is biochemical. The following applies: 2 mM ATP; for Selectivity high ATP CDK9 over high ATP CDK2: IC50 (high ATP CDK2)/IC50 (high ATP CDK9): Methods 1b. and 2b. The procedure:
1b. CDK9/CycT1 High ATP Kinase Assay
CDK9/CycT1-Inhibitory Activity of Compounds of the Present Invention at a High ATP Concentration after Preincubation of Enzyme and Test Compounds was Quantified Employing the CDK9/CycT1 TR-FRET Assay as Described in the Following Paragraphs.
Recombinant full-length His-tagged human CDK9 and CycT1, expressed in insect cells and purified by Ni-NTA affinity chromatography, were purchase from Invitrogen (Cat. No PV4131). As substrate for the kinase reaction biotinylated peptide biotin-Ttds-YISPLKSPYKISEG (C-terminus in amid form) was used which can be purchased e.g. form the company JERINI peptide technologies (Berlin, Germany). For the assay 50 nl of a 100 fold concentrated solution of the test compound in DMSO was pipetted into a black low volume 384 well microtiter plate (Greiner Bio-One, Frickenhausen, Germany), 2 μl of a solution of CDK9/CycT1 in aqueous assay buffer [50 mM Tris/HCl pH 8.0, 10 mM MgCl2, 1.0 mM dithiothreitol, 0.1 mM sodium ortho-vanadate, 0.01% (v/v) Nonidet-P40 (Sigma)] were added and the mixture was incubated for 15 min at 22° C. to allow pre-binding of the test compounds to the enzyme before the start of the kinase reaction. Then the kinase reaction was started by the addition of 3 μl of a solution of adenosine-tri-phosphate (ATP, 3.3 mM=>final conc. in the 5 μl assay volume is 2 mM) and substrate (1.67 μM=>final conc. in the 5 μl assay volume is 1 μM) in assay buffer and the resulting mixture was incubated for a reaction time of 25 min at 22° C. The concentration of CDK9/CycT1 was adjusted depending of the activity of the enzyme lot and was chosen appropriate to have the assay in the linear range, typical concentrations were in the range of 0.5 μg/mL. The reaction was stopped by the addition of 5 μl of a solution of TR-FRET detection reagents (0.2 μM streptavidine-XL665 [Cisbio Bioassays, Codolet, France] and 1 nM anti-RB(pSer807/pSer811)-antibody from BD Pharmingen [#558389] and 1.2 nM LANCE EU-W1024 labeled anti-mouse IgG antibody [Perkin-Elmer, product no. AD0077]) in an aqueous EDTA-solution (100 mM EDTA, 0.2% (w/v) bovine serum albumin in 100 mM HEPES/NaOH pH 7.0).
The resulting mixture was incubated 1 h at 22° C. to allow the formation of complex between the phosphorylated biotinylated peptide and the detection reagents. Subsequently the amount of phosphorylated substrate was evaluated by measurement of the resonance energy transfer from the Eu-chelate to the streptavidine-XL. Therefore, the fluorescence emissions at 620 nm and 665 nm after excitation at 350 nm was measured in a HTRF reader, e.g. a Rubystar (BMG Labtechnologies, Offenburg, Germany) or a Viewlux (Perkin-Elmer). The ratio of the emissions at 665 nm and at […] was taken as the measure for the amount of phosphorylated substrate. The data were normalised (enzyme reaction without inhibitor=0% inhibition, all other assay components but no enzyme=100% inhibition).
Background: TR-FRET usually uses a lanthanide donor and a delayed reading to cut background.

T1 sequence (P50750 whole entry): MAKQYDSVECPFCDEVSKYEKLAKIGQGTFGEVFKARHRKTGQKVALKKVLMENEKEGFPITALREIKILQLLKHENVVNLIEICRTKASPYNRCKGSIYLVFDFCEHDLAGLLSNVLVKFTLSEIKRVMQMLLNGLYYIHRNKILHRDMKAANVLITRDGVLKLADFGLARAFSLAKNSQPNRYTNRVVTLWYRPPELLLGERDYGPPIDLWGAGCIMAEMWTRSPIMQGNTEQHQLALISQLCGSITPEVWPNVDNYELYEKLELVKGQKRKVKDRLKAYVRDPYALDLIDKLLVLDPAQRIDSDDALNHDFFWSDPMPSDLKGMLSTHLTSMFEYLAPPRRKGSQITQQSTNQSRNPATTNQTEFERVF
T1 sequence (O60563 whole entry partner): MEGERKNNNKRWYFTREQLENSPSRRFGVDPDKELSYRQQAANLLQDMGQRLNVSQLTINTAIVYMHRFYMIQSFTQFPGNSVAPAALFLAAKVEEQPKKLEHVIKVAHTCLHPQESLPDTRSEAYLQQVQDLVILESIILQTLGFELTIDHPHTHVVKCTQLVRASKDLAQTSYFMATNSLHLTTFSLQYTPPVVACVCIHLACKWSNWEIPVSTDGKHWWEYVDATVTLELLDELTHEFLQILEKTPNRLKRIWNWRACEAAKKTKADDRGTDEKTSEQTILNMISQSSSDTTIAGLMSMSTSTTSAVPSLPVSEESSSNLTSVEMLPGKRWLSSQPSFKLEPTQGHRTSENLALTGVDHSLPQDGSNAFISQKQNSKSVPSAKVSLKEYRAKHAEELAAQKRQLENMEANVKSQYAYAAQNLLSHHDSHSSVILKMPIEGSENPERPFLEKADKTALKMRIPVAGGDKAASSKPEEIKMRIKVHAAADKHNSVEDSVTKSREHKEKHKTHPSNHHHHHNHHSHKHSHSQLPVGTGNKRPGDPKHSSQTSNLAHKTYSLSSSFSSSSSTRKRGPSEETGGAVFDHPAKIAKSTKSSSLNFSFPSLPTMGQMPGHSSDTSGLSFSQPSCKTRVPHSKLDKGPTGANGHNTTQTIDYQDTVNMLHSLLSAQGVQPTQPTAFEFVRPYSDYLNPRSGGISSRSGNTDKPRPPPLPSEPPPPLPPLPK

Turning to `Cc1cc(CS(C)(=N)=O)cc(Nc2ncc(F)c(-c3ccc(F)c4ccoc34)n2)c1` (racemic) [Example 16, (rac)-5-Fluoro-4-(4-fluoro-1-benzofuran-7-yl)-N-{3-methyl-5-[(S-methylsulfonimidoyl)-methyl]phenyl}pyrimidin-2-amine], the IC50 in the experiment with A2780 cells amounted to 35 nM; with HeLa-MaTu-ADR cells, 41 nM; on CDK9/CycT1, 6.4 nM. Besides, at CDK9/CycT1, the “Selectivity high ATP CDK9 over high ATP CDK2: IC50 (high ATP CDK2)/IC50 (high ATP CDK9)” value (“Selectivity high ATP CDK9” for short) is given as 77.
With `CS(=O)(Cc1cccc(Nc2ncc(F)c(-c3ccc(F)c4ccoc34)n2)c1)=NC#N` (single isomer, unassigned) [Example 3, [(3-{[5-Fluoro-4-(4-fluoro-1-benzofuran-7-yl)pyrimidin-2-yl]amino}benzyl)(methyl)oxido-λ^6-sulfanylidene]cyanamide], the IC50 was found to be 67 nM with A2780 cells, 118 nM with HeLa-MaTu-ADR cells and 1 nM against CDK9/CycT1. The “Selectivity high ATP CDK9” value at CDK9/CycT1 turned out to be 475.
For `CS(=O)(Cc1cc(F)cc(Nc2ncc(F)c(-c3ccc(F)c4ccoc34)n2)c1)=NC#N` (single isomer, unassigned) [Example 8, [(3-Fluoro-5-{[5-fluoro-4-(4-fluoro-1-benzofuran-7-yl)pyrimidin-2-yl]amino}benzyl)(methyl)-oxido-λ^6-sulfanylidene]cyanamide], in that order: 37 nM, 35 nM, 1 nM and 812.
In the case of `CS(=O)(Cc1cc(F)cc(Nc2ncc(F)c(-c3ccc(F)c4ccoc34)n2)c1)=NC#N` (racemic) [Example 7, (rac)-[(3-Fluoro-5-{[5-fluoro-4-(4-fluoro-1-benzofuran-7-yl)pyrimidin-2-yl]amino}benzyl)(methyl)-oxido-λ^6-sulfanylidene]cyanamide], the results for the IC50 with A2780 cells, in the experiment on HeLa-MaTu-ADR cells and at CDK9/CycT1 were 23 nM, 60 nM and 1.9 nM, respectively. Besides, the “Selectivity high ATP CDK9” value on CDK9/CycT1 was found to be 343.
As for `CS(=O)(Cc1cccc(Nc2ncc(F)c(-c3ccc(F)c4ccoc34)n2)c1)=NC#N` (racemic) [Example 1, (rac)-[(3-{[5-Fluoro-4-(4-fluoro-1-benzofuran-7-yl)pyrimidin-2-yl]amino}benzyl)(methyl)oxido-λ^6-sulfanylidene]cyanamide], the values for the IC50 in the experiment with A2780 cells, in the experiment on HeLa-MaTu-ADR cells and against CDK9/CycT1 were 46 nM, 134 nM and 0.9 nM, respectively. Besides, the “Selectivity high ATP CDK9” value on CDK9/CycT1 turned out to be 622.
Consider `CS(=N)(=O)Cc1cc(Nc2ncc(F)c(-c3ccc(F)c4ccoc34)n2)cc(S(F)(F)(F)(F)F)c1` (racemic) [Example 18, (rac)-5-Fluoro-4-(4-fluoro-1-benzofuran-7-yl)-N-{3-[(S-methylsulfonimidoyl)methyl]-5-(pentafluoro-λ^6-sulfanyl)phenyl}pyrimidin-2-amine], for which the IC50 in the experiment with A2780 cells worked out at 34 nM; in the experiment on HeLa-MaTu-ADR cells, 116 nM; against CDK9/CycT1, 4.4 nM. The “Selectivity high ATP CDK9” value at CDK9/CycT1 came to 350.
